Reference: patent US5925331A, “Technetium-99m labeled peptides for thrombus imaging” (Diatide, Inc., priority 1995, dated 1999)

These molecules were tested on human platelets in platelet-rich plasma (assay: Platelet aggregation inhibition assay (ADP-induced, platelet-rich plasma)). Settings: fresh human platelet-rich plasma, 300,000 platelets per microliter; ADP 10 to 15 micromolar; read-out: IC50: concentration of reagent that inhibits by 50% the aggregation of human platelets in platelet-rich plasma induced by ADP.
Format: cell-based
Procedure: Platelet aggregation studies were performed essentially as described by Zucker (1989, Methods in Enzymol. 169: 117-133). Briefly, platelet aggregation was assayed with or without putative platelet aggregation inhibitory compounds using fresh human platelet-rich plasma, comprising 300,000 platelets per microliter. Platelet aggregation was induced by the addition of a solution of adenosine diphosphate to a final concentration of 10 to 15 micromolar, and the extent of platelet aggregation monitored using a Bio/Data aggregometer (Bio/Data Corp., Horsham, Pa.). The concentrations of platelet aggregation inhibitory compounds used were varied from 0.1 to 500 μg/mL. The concentration of inhibitor that reduced the extent of platelet aggregation by 50% (defined as the IC50) was determined from plots of inhibitor concentration versus extent of platelet aggregation. An inhibition curve for peptide RGDS was determined for each batch of platelets tested as a positive control.
For `CC(=O)NCSC[C@H](NC(=O)CNC(=O)CNC(=O)[C@@H]1CSCC(=O)N[C@H](Cc2ccc(O)cc2)C(=O)N[C@@H](CSCCCN)C(=O)NCC(=O)N[C@@H](CC(=O)O)C(=O)N1)C(=O)NCC(=O)N[C@@H](CSCNC(C)=O)C(=O)NCC(=O)NCC(=O)N[C@H](Cc1ccccc1)C(=O)N1CCC[C@H]1C(=O)N[C@@H](CCCNC(=N)N)C(=O)N1CCC[C@H]1C(=O)NCC(N)=O` [Peptide P245, CH2 CO--YD.Apc.GDCGGCAcm GCAcm GGFD PRPGamide], the IC50 was 0.5 µM. With “(CH2 CO--YD ApcGDCKGCAcm GCAcm GGC-amide)2 --BSME [Peptide P381]” the IC50 was 0.035 µM. Molecule GRDGVRGDFCAcm GCAcm amide [Peptide P98] has an IC50 of 15 µM. “GRGDVRGDFKCAcm GCAcm amide [Peptide P97]” showed an IC50 of 8 µM.
